# Test system: glycogen synthase
# Test: Glycogen Synthase (GS) Assay
# Format: biochemical
# Settings: for EC50: compound concentration needed to give 50% maximum activation; for GS SC200: compound concentration needed to stimulate 200% of the enzyme activity
# Method: The following tests were carried out in order to determine the activity of the compounds of formula (I).
# Twelve μL per well of substrate solution containing glycogen (4.32 mg/mL), 2.67 mM UDP-glucose, 21.6 mM phospho(enol)pyruvate and 2.7 mM NADH in 30 mM glycylglycine, pH 7.3 buffer was added into a polystyrene 384-well assay plate (BD Biosciences).
# Compound solutions (8 μL/well) at various concentrations (0-300 μM) were added to the assay plate (columns 5-24). Compound solution contains 30 mM glycylglycine, pH 7.3, 40 mM KCl, 20 mM MgC12, 9.2% DMSO, with (columns 15-24) or without (columns 5-14) 20 mM glucose 6-phosphate.
# Enzyme solution (12 μL/well) containing glycogen synthase (16.88 μg/mL), pyruvate kinase (0.27 mg/mL), lactate dehydrogenase (0.27 mg/mL) in 50 mM Tris-HCl, pH 8.0, 27 mM DTT and bovine serum albumin (BSA, 0.2 mg/mL) was added to the assay plate (columns 3-24). As a blank control, enzyme solution without glycogen synthase was added into the top half wells of columns 1-2. To the bottom half wells of columns 1-2 were added a known activator, glucose 6-phosphate (at final concentration 5 mM) in addition to the enzyme solution. The reaction mixture was incubated at room temperature. The assay plate was then read for absorbance at 340 nm on an Envision reader every 3 minutes up to a total of 15 minutes.
# The enzyme activity (with or without compound) was calculated by the reaction rate and represented by the optical density change (SOD) per minute. Percent stimulation of glycogen synthase activity by a compound at various concentrations was calculated by the following formula: […]
# where Rs is the reaction rate of the enzyme in the presence of compound and Rt is the reaction rate of the enzyme in the absence of compound.
# SC200 is defined as the compound concentration that is needed to stimulate 200% of the enzyme activity. EC50 is defined as the compound concentration that is needed to give 50% maximum activation.
# Compounds from Example 1 through Example 36 were assayed according to assay procedures described above and the results are listed in Table 1 below: […]
EC50,Structure (SMILES),GS SC200
380 nM,"COc1cc(F)c(F)cc1-c1ccc(OCC2CCCN(C(=O)N(C)CC(=O)NS(C)(=O)=O)C2)cc1 (stereo not drawn) [Example 31, 3-(4′,5′-Difluoro-2′-methoxy-biphenyl-4-yloxymethyl)-piperidine-1-carboxylic acid (2-methanesulfonylamino-2-oxo-ethyl)-methyl-amide]",0.11 µM
520 nM,"COc1cc(F)c(F)cc1-c1ccc(OCC2CCCN(C(=O)N(CC(=O)NS(C)(=O)=O)Cc3ccccc3)C2)cc1 (stereo not drawn) [Example 34, 3-(4′,5′-Difluoro-2′-methoxy-biphenyl-4-yloxymethyl)-piperidine-1-carboxylic acid benzyl-(2-methanesulfonylamino-2-oxo-ethyl)-amide]",0.07 µM
12300 nM,"COc1cc(F)c(F)cc1-c1ccc(OCC2CCCN(C(=O)[C@H](CC(=O)O)N(C)C(C)=O)C2)cc1 (stereo partly drawn) [Example 13, (S)-3-(Acetyl-methyl-amino)-4-[3-(4′,5′-difluoro-2′-methoxy-biphenyl-4-yloxymethyl)-piperidin-1-yl]-4-oxo-butyric acid]",2.12 µM
350 nM,"COc1cc(F)c(F)cc1-c1ccc(OC[C@H]2CCCN(C(=O)CC(=O)O)C2)cc1 (single isomer, unassigned) [Example 3]",0.21 µM
1740 nM,"COc1cc(F)c(F)cc1-c1ccc(OC[C@@H]2CCCN(C(=O)CC(=O)O)C2)cc1 (single isomer, unassigned) [Example 4]",1.18 µM
950 nM,"COc1cc(F)c(F)cc1-c1ccc(OC[C@@H]2CCCN(C(=O)N(CC(=O)O)Cc3ccccc3)C2)cc1 (single isomer, unassigned) [Example 23]",0.23 µM
2030 nM,"COc1cc(F)c(F)cc1-c1ccc(OC[C@@H]2CCCN(C(=O)N(C)CC(=O)NS(C)(=O)=O)C2)cc1 [Example 33, (R)-3-(4′,5′-Difluoro-2′-methoxy-biphenyl-4-yloxymethyl)-piperidine-1-carboxylic acid (2-methanesulfonylamino-2-oxo-ethyl)-methyl-amide]",0.41 µM

Structure (SMILES),EC50,GS SC200
"COc1cc(F)c(F)cc1-c1ccc(OCC2CCCN(C(=O)[C@H](CC(=O)O)NC(=O)OC(C)(C)C)C2)cc1 (stereo partly drawn) [Example 12, (S)-3-tert-Butoxycarbonylamino-4-[3-(4′,5′-difluoro-2′-methoxy-biphenyl-4-yloxymethyl)-piperidin-1-yl]-4-oxo-butyric acid]",11100 nM,3.74 µM
"COc1cc(F)c(F)cc1-c1ccc(OCC2CCCN(C(=O)[C@@H](CC(=O)O)NC(=O)OC(C)(C)C)C2)cc1 (stereo partly drawn) [Example 10, (R)-3-tert-Butoxycarbonylamino-4-[3-(4′,5′-difluoro-2′-methoxy-biphenyl-4-yloxymethyl)-piperidin-1-yl]-4-oxo-butyric acid]",5710 nM,1.51 µM

# Source: patent US20110118314A1, “PIPERIDINE ANALOGS AS GLYCOGEN SYNTHASE ACTIVATORS” (priority 2009, published 2011)
